*1 amine or outer side, *2 acyl side, *3 side chain or, on linkers, in order; H or OH if unused. Where a SMILES comes first, the peptide text is derived from it. Bridges are numbered along the chain shown (N, C = ends). Roman numbers before positions name the chains, in order. [ ]: non-standard residue; d: D form. NH(CH2)3(OCH2CH2)2O(CH2)3NH = C(CN[*:1])COCCOCCOCCCN[*:2]; Dip = N[C@H](C(=O)O)C(c1ccccc1)c1ccccc1; Chg = N[C@H](C(=O)O)C1CCCCC1; NMeA = CN[C@@H](C)C(=O)O; dNMeA = CN[C@H](C)C(=O)O
Target: T1, MLXBIR3SG (Homo sapiens, UniProt Q96CA5, S150G)
T1 sequence (Q96CA5 with tags, fused parts or gaps S150G): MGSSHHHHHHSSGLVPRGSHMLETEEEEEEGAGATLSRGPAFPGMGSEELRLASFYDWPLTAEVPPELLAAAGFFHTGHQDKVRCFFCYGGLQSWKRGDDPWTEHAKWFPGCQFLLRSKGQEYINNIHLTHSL
Assay: Fluorescence Polarization Peptide Binding Assay
Conditions: competition with 5 nM AVP-diPhe-FAM probe, MLXBIR3SG at 30 nM
Protocol: In the following experiments was used a chimeric BIR domain referred to as MLXBIR3SG in which 11 of 110 residues correspond to those found in XIAP-BIR3, while the remainder correspond to ML-IAP-BIR. […] The improved caspase-9 inhibition of the chimeric BIR domain MLXBIR3SG has been correlated with increased inhibition of doxorubicin-induced apoptosis when transfected into MCF7 cells.
Polarization experiments were performed on an Analyst HT 96-384 (Molecular Devices Corp.) according to the procedure of Keating, S. M., Marsters, J, Beresini, M., Ladner, C., Zioncheck, K., Clark, K., Arellano, F., and Bodary., S. (2000) in Proceedings of SPIE: In Vitro Diagnostic Instrumentation (Cohn, G. E., Ed.) pp 128-137, Bellingham, Wash. Samples for fluorescence polarization affinity measurements were prepared by addition of 1:2 serial dilutions starting at a final concentration of 5 μM of MLXBIR3SG in polarization buffer (50 mM Tris [pH 7.2], 120 mM NaCl, 1% bovine globulins 5 mM DTT and 0.05% octylglucoside) to 5-carboxyflourescein-conjugated AVPdi-Phe-NH2 (AVP-diPhe-FAM) at 5 nM final concentration.
The reactions were read after an incubation time of 10 minutes at room temperature with standard cut-off filters for the fluorescein fluorophore (λex=485 nm; λem=530 nm) in 96-well black HE96 plates (Molecular Devices Corp.). Fluorescence values were plotted as a function of the protein concentration, and the IC50s were obtained by fitting the data to a 4-parameter equation using Kaleidograph software (Synergy software, Reading, Pa.). Competition experiments were performed by addition of the MLXBIR3SG at 30 nM to wells containing 5 nM of the AVP-diPhe-FAM probe as well as 1:3 serial dilutions of antagonist compounds starting at a concentration of 300 μM in the polarization buffer. Samples were read after a 10-minute incubation. Fluorescence polarization values were plotted as a function of the antagonist concentration, and the IC50 values were obtained by fitting the data to a 4-parameter equation using Kaleidograph software (Synergy software, Reading, Pa.) Inhibition constants (Ki) for the antagonists were determined from the IC50 values.

Row | SMILES | IC50 [nM]
1 | CN[C@@H](C)C(=O)N[C@H](C(=O)N1CC(OCc2ccc(C#CC#Cc3ccc(CO[C@H]4C[C@@H](C(=O)Nc5snnc5-c5ccccc5)N(C(=O)[C@@H](NC(=O)[C@H](C)NC)C5CCCCC5)C4)cc3)cc2)C[C@H]1C(=O)Nc1snnc1-c1ccccc1)C1CCCCC1 (stereo partly drawn) [compound 4] | 2410
2 | CN[C@@H](C)C(=O)N[C@H](C(=O)N1CCC[C@H]1C(=O)N[C@H](C(=O)NCCCOCCOCCOCCCNC(=O)[C@@H](NC(=O)[C@@H]1CCCN1C(=O)[C@@H](NC(=O)[C@@H](C)NC)C1CCCCC1)C(c1ccccc1)c1ccccc1)C(c1ccccc1)c1ccccc1)C1CCCCC1 [compound 10] (I: H-[NMeA][Chg]P[Dip] / II: H-[dNMeA][Chg]P[Dip]; linker I:C-II:C via NH(CH2)3(OCH2CH2)2O(CH2)3NH) | 1320
3 | CN[C@@H](C)C(=O)N[C@H](C(=O)N1CCC[C@H]1C(=O)Nc1sc(-c2nccs2)nc1-c1ccccc1)c1ccc(OCC#CC#CCOc2ccc([C@H](NC(=O)[C@H](C)N)C(=O)N3CCC[C@H]3C(=O)Nc3sc(-c4nccs4)nc3-c3ccccc3)cc2)cc1 [compound 11] | 1030
4 | CN[C@@H](C)C(=O)N[C@H](C(=O)N1CCC[C@H]1C(=O)Nc1sc(-c2nccn2C)nc1-c1ccccc1)c1ccc(OCC#CC#CCOc2ccc([C@H](NC(=O)[C@H](C)NC)C(=O)N3CCC[C@H]3C(=O)Nc3sc(-c4nccn4C)nc3-c3ccccc3)cc2)cc1 [compound 12] | 1100
5 | CN[C@@H](C)C(=O)N[C@H](C(=O)N1CCC[C@H]1C(=O)Nc1sc(-c2ccccn2)nc1-c1ccccc1)c1ccc(OCC#CC#CCOc2ccc([C@H](NC(=O)[C@H](C)NC)C(=O)N3CCC[C@H]3C(=O)Nc3sc(-c4nccn4C)nc3-c3ccccc3)cc2)cc1 [compound 13] | 3820
6 | CN[C@@H](C)C(=O)N[C@H](C(=O)N1CCC[C@H]1C(=O)Nc1sc(-c2ccccn2)nc1-c1ccccc1)c1ccc(OCC#CC#CCOc2ccc([C@H](NC(=O)[C@H](C)NC)C(=O)N3CCC[C@H]3C(=O)Nc3sc(-c4ccccn4)nc3-c3ccccc3)cc2)cc1 [compound 14] | 2350
7 | CN[C@@H](C)C(=O)N[C@H](C(=O)N1CCC[C@H]1C(=O)Nc1sc(C(=O)NCCCCCCCCCCCNC(=O)c2nc(-c3ccccc3)c(NC(=O)[C@@H]3CCCN3C(=O)[C@@H](NC(=O)[C@H](C)NC)C3CCCCC3)s2)nc1-c1ccccc1)C1CCCCC1 [compound 15] | 3830
8 | CN[C@@H](C)C(=O)N[C@H](C(=O)N1CCC[C@H]1C(=O)Nc1sc(C(=O)NCCOCCOCCNC(=O)c2nc(-c3ccccc3)c(NC(=O)[C@@H]3CCCN3C(=O)[C@@H](NC(=O)[C@H](C)NC)C3CCCCC3)s2)nc1-c1ccccc1)C1CCCCC1 [compound 16] | 234
9 | CN[C@@H](C)C(=O)N[C@H](C(=O)C1CCCN1c1nc2c(-c3ccccc3)nccc2s1)C1CCN(C(=O)NCCCCCCNC(=O)N2CCC([C@H](NC(=O)[C@H](C)NC)C(=O)N3CCC[C@H]3c3nc4c(-c5ccccc5)nccc4s3)CC2)CC1 (stereo partly drawn) [compound 17] | 168
10 | CN[C@@H](C)C(=O)N[C@H](C(=O)N1CCC[C@H]1C(=O)Nc1sc(C(=O)NCC(O)CNC(=O)c2nc(-c3ccccc3)c(NC(=O)[C@@H]3CCCN3C(=O)[C@@H](NC(=O)[C@H](C)NC)C3CCCCC3)s2)nc1-c1ccccc1)C1CCCCC1 [compound 22] | 378
11 | CN[C@@H](C)C(=O)N[C@H](C(=O)N1CCC[C@H]1C(=O)Nc1sc(C(=O)NCC(C)(C)CNC(=O)c2nc(-c3ccccc3)c(NC(=O)[C@@H]3CCCN3C(=O)[C@@H](NC(=O)[C@H](C)NC)C3CCCCC3)s2)nc1-c1ccccc1)C1CCCCC1 [compound 23] | 679
12 | CN[C@@H](C)C(=O)N[C@H](C(=O)N1CCC[C@H]1C(=O)Nc1sc(C(=O)NCc2ccc(CNC(=O)c3nc(-c4ccccc4)c(NC(=O)C4CCCN4C(=O)[C@H](NC(=O)[C@@H](C)NC)C4CCCCC4)s3)cc2)nc1-c1ccccc1)C1CCCCC1 (stereo partly drawn) [compound 24] | 1380
